Reference: patent US20100197787A1, “Composition for Prevention of Hypoglycemic Condition” (priority 2005, published 2010)

Assays:
rat brain cells [1] = assay: Promoting activity of intravenously administered BCAA in incorporation of carbohydrate into the brain (2DG-6P amount); assay type: in vivo; conditions: at 24 hours after intravenous administration, 1.5% by mass in 5% by mass glucose, 10 mL/kg/hr, male SD rats, versus control group (5% glucose) and mixed amino acid group, FIG. 2
Description: Control group: A solution prepared by dissolving glucose at a concentration of 5% by mass in purified water was used as the test solution for the control group. Mixed amino acid group: A solution prepared by dissolving […] (registered trademark, manufactured by Otsuka Pharmaceutical Co., Ltd.) at a concentration of 1.5% by mass in purified water containing 5% by mass glucose was used as the test solution for the mixed amino acid group. Leucine group: A solution prepared by dissolving L-leucine at a concentration of 1.5% by mass in purified water containing 5% by mass glucose was used as the test solution for the leucine group. Isoleucine group: A solution prepared by dissolving L-isoleucine at a concentration of 1.5% by mass in purified water containing 5% by mass glucose was used as the test solution for the isoleucine group. Valine group: A solution prepared by dissolving L-valine at a concentration of 1.5% by mass in purified water containing 5% by mass glucose was used as the test solution for the valine group. Male […] SD rats (Nippon Clare) were kept for 14 days and given free access to food (purified feed: AIN-93G manufactured by Nippon Nosan Kogyo Co., Ltd.) and water. At the age of 8-week-old, the rats were grouped depending on the body weight into 5 groups (control group, mixed amino acid group, leucine group, isoleucine group and valine group). After the grouping, under ether anesthesia, the cervical region of each rat was opened, and a catheter was inserted into the jugular vein. The other end of the catheter was passed subcutaneously, exposed on the back and connected via a harness to, and fixed to, a swivel. Then each rat was housed in a separate metabolism cage. […] The separated plasma was measured for its 2DG level and blood glucose level in the same manner as in the test method in Test Example 1. […] After blood removal, the brain tissue was removed, mixed with 1N NaOH that was 4 parts of the brain tissue by weight, and then heated in a water bath at 60° C. for 1 hour to lyse the brain tissue. To the brain tissue lysate solution, 1N HCl in the same amount as that of 1N NaOH was added, thereby neutralizing the solution to give a neutralized homogenate of the brain tissue. The amount of 2DG-6P in the neutralized homogenate was measured in the same manner as in the test method in Test Example 1, to determine the amount of the carbohydrate incorporated into the brain cells. In statistical processing, after analysis of variance, Dunnett's multiple comparison with the control was carried out to test significant difference.

rat brain cells [2] = assay: Promoting activity of orally administered branched amino acid in incorporation of carbohydrate into the brain (2DG-6P amount); assay type: in vivo; conditions: 1 hour after oral administration of suspension, 0.45 g/15 mL/kg BW, male Wistar rats, versus control group (physiological saline), FIG. 1
Procedure: Leucine group: An L-leucine suspension prepared by adding 3 g L-leucine to 100 mL physiological saline and suspending it with a homogenizer was used as a test solution of leucine group. Isoleucine group: An L-isoleucine suspension prepared by adding 3 g L-isoleucine to 100 mL physiological saline and suspending it with a homogenizer was used as a test solution of isoleucine group. Male 6-week-old Wistar rats (Charles River Japan, Inc.) were kept for 14 days and given free access to food (purified feed: AIN-93G manufactured by Nippon Nosan Kogyo Co., Ltd.) and water. At the age of 8-week-old, the rats were grouped depending on the body weight into 3 groups (control group, leucine group and isoleucine group). After the grouping, under ether anesthesia, the cervical region of each rat was opened, and a catheter was inserted into the jugular vein. The other end of the catheter was passed subcutaneously, exposed on the back and connected via a harness to, and fixed to, a swivel. Then each rat was housed in a separate metabolism cage. Physiological saline was administered via the catheter continuously at a rate of 1 mL/hr/body to the rat. […] 20 μL of the plasma was placed in a vial for liquid scintillation counter measurement, and then 5 mL scintillator was added to and mixed with the plasma, which was then measured for its tritium level (count) with a liquid scintillation counter to determine the amount of 2DG. The blood glucose level was measured by a glucose oxidase dye method. […] 900 μL of the separated supernatant was placed in a vial for liquid scintillation counter measurement, and then 5 mL scintillator was added to and mixed with the supernatant, which was then measured for its tritium level (count) with a liquid scintillation counter to determine the amount of 2DG. […] 900 μL of the separated supernatant was placed in a vial for liquid scintillation counter measurement, and then 10 mL scintillator was added to and mixed with the supernatant, which was then measured for its tritium level (count) with a liquid scintillation counter to determine the amount of 2DG and 2DG-6P. […]

Compound | amount of the carbohydrate incorporated into brain cells (amount of 2DG-6P) (rat brain cells [1]) | amount of the carbohydrate incorporated into brain cells (amount of 2DG-6P) (rat brain cells [1]; listed as valine) | amount of the carbohydrate incorporated into brain cells (amount of 2DG-6P) (rat brain cells [2]) | amount of the carbohydrate incorporated into brain cells (amount of 2DG-6P) (rat brain cells [2]; listed as isoleucine) | amount of the carbohydrate incorporated into brain cells (amount of 2DG-6P) (rat brain cells [1]; listed as isoleucine)
CC(C)[C@H](N)C(=O)O [L-valine] | higher than that of the control group and of the mixed amino acid group | tendency to promote incorporation of the carbohydrate into brain cells was recognized | – | – | –
CC[C@H](C)[C@H](N)C(=O)O [L-isoleucine] | higher than that of the control group and of the mixed amino acid group | – | higher than that of the control group | significantly promoted | tendency to promote incorporation of the carbohydrate into brain cells was recognized
CC(C)C[C@H](N)C(=O)O [L-leucine] | higher than that of the control group and of the mixed amino acid group | – | higher than that of the control group | – | –
